Laboratory results reported in US20230129258A1, “HETEROTANDEM BICYCLIC PEPTIDE COMPLEXES” (BicycleTx Limited, priority 2019, published 2023).
pEC50: −log10 of the molar value. Where two headings read alike, the source gives them in different places. Starred links: 1 amine or outer side, 2 acyl side, 3 side chain; linkers in the order of their positions; H or OH if unused. Positions of bridges follow the written chain, without caps; N, C: chain ends. Non-standard residues stand in square brackets, D forms with d. Chains are numbered I, II in the order given. ξ: configuration not given here. X1 = O=C(CCOCCOCCOCCN(CCOCCOCCOCCn1cc(CCC(=O)[*:2])nn1)CCOCCOCCOCCn1cc(CCC(=O)[*:3])nn1)[*:1]; X3 = O=C(CCc1cn(CCOCCOCCOCCN(CCOCCOCCOCCC(=O)[*:3])CCOCCOCCOCCn2cc(CCC(=O)[*:2])nn2)nn1)[*:1]; TATA = O=C(CC[*:1])N1CN(C(=O)CC[*:2])CN(C(=O)CC[*:3])C1; ξDip = NC(C(=O)O)C(c1ccccc1)c1ccccc1; Hyp = O=C(O)[C@@H]1C[C@@H](O)CN1; hArg = N=C(N)NCCCC[C@H](N)C(=O)O; tBuAla = CC(C)(C)C[C@H](N)C(=O)O; Cba = N[C@@H](CC1CCC1)C(=O)O; Nle = CCCC[C@H](N)C(=O)O; ξP = O=C(O)C1CCCN1

Experiments:
[1] = Pharmacokinetics in SD rats; type: in vivo; details: male, SD, rat, plasma, IV Inf (15 minutes); for half-life: iv, read-out: T1/2 (converted); for clearance: read-out: Clp; for Vd: read-out: Vdss
Experimental: Male SD Rats were dosed with each heterotandem Bicycle peptide complex formulated in 25 mM Histidine HCl, 10% sucrose pH 7 by IV bolus or IV infusion (15 minutes). Serial bleeding (about 80 μL blood/time point) was performed via submandibular or saphenous vein at each time point. All blood samples were immediately transferred into prechilled microcentrifuge tubes containing 2 μL K2-EDTA (0.5M) as anti-coagulant and placed on wet ice. Blood samples were immediately processed for plasma by centrifugation at approximately 4° C., 3000 g. The precipitant including internal standard was immediately added into the plasma, mixed well and centrifuged at 12,000 rpm, 4° C. for 10 minutes. The supernatant was transferred into pre-labeled polypropylene microcentrifuge tubes, and then quick-frozen over dry ice. The samples were stored at […] or below as needed until analysis. 7.5 μL of the supernatant samples were directly injected for LC-MS/MS analysis using an Orbitrap Q Exactive in positive ion mode to determine the concentrations of analyte. Plasma concentration versus time data were analyzed by non-compartmental approaches using the Phoenix WinNonlin 6.3 software program. C0, CI, Vdss, T½, AUC(0-last), AUC(0-inf), MRT(0-last), MRT(0-inf) and graphs of plasma concentration versus time profile were reported.

[2] = test system: MC38 tumors; test: Anti-tumor activity of EphA2/CD137 complexes in syngeneic MC38 tumor model; type: in vivo, C57BL/6J-hCD137 mice; details: 5 mg/kg IV BIW, 6 doses; day 28
Experimental: 6-8 weeks old C57BL/6J-hCD137 female mice were inoculated in the flank with 1×10^6 syngeneic MC38 cells. When tumors reached 76 mm^3 size on average, mice were randomized to receive vehicle or BCY12491 (intraperitoneal administration). BCY12491 was administered (n=6 mice/treatment cohort) at either 5 mg/kg or 15 mg/kg either daily (QD) or every three days (Q3D). QD dosed mice received 22 doses of BCY12491 and Q3D dosed mice received 8 doses of BCY12491. Tumor growth was monitored by caliper measurements until day 73 after treatment initiation. The results of this experiment may be seen in FIG. 9 where it can be seen that the effect of BCY12491 on tumor growth becomes apparent in the first two weeks of the dosing period reducing the tumor growth and causing reduction of volumes of many of the treated tumors. By day 41, 15 out of 24 BCY12491 treated animals had completely responded to the treatment and had no palpable tumors left.
6-8 week old female C57BL/6J-hCD137 mice [B-hTNFRSF9(CD137) mice; Biocytogen] were implanted subcutaneously with 1×10^6 MC38 cells. Mice were randomized into treatment groups (n=6/cohort) when average tumor volumes reached around 76 mm^3 and were treated with daily doses of vehicle (25 mM histidine, 10% sucrose, pH7). BCY12491 treatment was conducted at two different dose levels (5 and 15 mg/kg) and two different dosing schedules (QD: daily; Q3D: every three days). Animals received either 22 QD doses or 8 Q3D doses intraperitoneally (ip). Tumor growth was monitored until tumor reached volumes over 2000 mm^3 or until 73 days after treatment initiation. After Day 73, 5 complete responder animals were re-challenged with MC38 tumor cell implantation alongside with 5 naïve C57BL/6J-hCD137 mice. Tumor growth was monitored for 20 days.
(§1) 6-8 week old female C57BL/6J-hCD137 mice [B-hTNFRSF9(CD137) mice; Biocytogen] were implanted subcutaneously with 1×10^6 MC38 cells. Mice were randomized into treatment groups (n=6/cohort) when average tumor volumes reached around 92 mm^3 and were treated intravenously with Q3D doses of vehicle (25 mM histidine, 10% sucrose, pH7), 15 mg/kg of BCY12730, BCY12723 or BCY12491 (7 Q3D doses). Tumor growth was monitored for 28 days or until tumors exceeded 2000 mm^3.
as §1, with “76” for “92”, “twice weekly (BIW)” for “Q3D”, “5” for “15”, “BCY13048, BCY13050,” for “BCY12730, BCY12723”, “(6 BIW” for “(7 Q3D”

[3] = test system: human PBMCs; test: Human PBMC co-culture cytokine secretion assay with EphA2-expressing tumor cells (MC38, HT-1080, HT29); type: cell-based; details: human PBMC-MC38 co-culture
Experimental: […] MC38 were cultured in Dulbecco's Modified Eagle Medium supplemented with 10% heat inactivated Fetal Bovine Serum (FBS), 1× Penicillin/Streptomycin, 10 mM HEPES, and 2 mM L-Glutamine (referred to as R10 medium). Frozen PBMCs from healthy human donors were thawed and washed once in room temperature PBS with benzonase, and then resuspended in RPMI supplemented with 10% heat inactivated Fetal Bovine Serum (FBS), 1× Penicillin/Streptomycin, 10 mM HEPES, and 2 mM L-Glutamine (herein referred to as R10 medium). 100 μl of PBMCs (1,000,000 PBMCs/ml) and 100 μl of tumor cells (100,000 tumor cells/ml) (Effector:Target cell ratio (E:T) 10:1) were plated in each well of a 96 well flat bottom plate for the co-culture assay. 100 ng/ml of soluble anti-CD3 mAb (clone OKT3) was added to the culture on day 0 to stimulate human PBMCs. Test, control compounds, or vehicle controls were diluted in R10 media and 50 μL was added to respective wells to bring the final volume per well to 250 μL. Plates were covered with a breathable film and incubated in a humidified chamber at 37° C. with 5% CO2 for two days. […] Briefly, the standards and samples were added to a black 96 well plate. Microparticle cocktail (provided in Luminex kit, R&D Systems) was added and shaken for 2 hours at room temperature. The plate was washed 3 times using a magnetic holder. Biotin cocktail was then added to the plate and shaken for 1 hour at RT. The plate was washed 3 times using a magnetic holder. Streptavidin cocktail was added to the plate and shaken for 30 minutes at RT. The plates were washed 3 times using a magnetic holder, resuspended in 100 μL of wash buffer, shaken for 2 minutes at RT, and read using the Luminex 2000. Raw data were analyzed using built-in Luminex software to generate standard curves and interpolate protein concentrations, all other data analyses and graphing were performed using Excel and Prism software. Data represents one study with three independent donor PBMCs tested in experimental duplicates.
Similarly, PBMCs from healthy donors were co-cultured with EphA2 expressing cancer cells (MC38 and HT-1080) at a ratio of 5:1 in presence of anti-CD3 and BCY13272. […]

[4] = target: CD137 (Homo sapiens, UniProt Q07011); test: CD137 reporter assay (Promega, Jurkat cells) in co-culture with EphA2-expressing tumor cells (A549, PC3, HT29); type: cell-based; parameters: host or cells: Jurkat reporter cells; details: for Emax (fold induction over background): CD137 reporter coculture assay with PC3 tumor cells; for pEC50: EC50, CD137 reporter coculture assay with PC3 tumor cells
Procedure, shortened: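 Readout is Bio-Glo luminescence after 6 h, 37° C co-culture of CD137 reporter Jurkat cells, target tumor cells (EphA2: A549, PC3, HT29; PD-L1: RKO) and titrated test articles in 1% FBS RPMI. EC50 (nM) and maximal induction come from fold change over untreated co-culture.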

[5] = test system: MC38 tumor tissue; test: Immune response in MC38 tumors (nCounter transcriptional analysis, CD8 IHC); type: in vivo, C57BL/6J-hCD137 mice; details: Q3D x3, peptides 15 mg/kg IV, anti-CD137 2 mg/kg ip
Experimental: 6-8 week old female C57BL/6J-hCD137 mice [B-hTNFRSF9(CD137) mice; Biocytogen] were implanted subcutaneously with 1×10^6 MC38 cells. Mice were randomized into treatment groups when average tumor volumes reached around 240 mm^3 and were treated (n=6/treatment cohort) with vehicle (25 mM histidine, 10% sucrose, pH7) intravenously (IV), 15 mg/kg BCY12491 (EphA2: CD137 1:2 Heterotandem Complex) IV, 15 mg/kg BCY13626 (non-binding control for EphA2) IV or 2 mg/kg Anti-CD137 (urelumab analogue) intraperitoneally. All treatments were given Q3D for three doses and tumor tissues were harvested 1 hour after the last dose. Part of the tumor tissue was used for RNA isolation for transcriptional analysis and a part of the tumor tissue was used for formalin fixed paraffin embedded (FFPE) sample preparation for immunohistochemical (INC) analysis. RNA was isolated from tumor tissues using RNAeasy kit [Qiagen] and transcriptional analysis was performed using nCounter Mouse PanCancer IO 360 panel (Nanostring) from 100 ng RNA/tumor. Data was analysed using the nSolver Analysis Software (Nanostring). CD8+ tumor infiltrating cells were stained in FFPE tissue sections using anti-mouse CD8 antibody (Abcam, #ab217344) and Ventana Discovery OmniMap anti Rabbit-HRP Kit (Ventana #760 4310).

Sequence of CD137 (Q07011 24-255): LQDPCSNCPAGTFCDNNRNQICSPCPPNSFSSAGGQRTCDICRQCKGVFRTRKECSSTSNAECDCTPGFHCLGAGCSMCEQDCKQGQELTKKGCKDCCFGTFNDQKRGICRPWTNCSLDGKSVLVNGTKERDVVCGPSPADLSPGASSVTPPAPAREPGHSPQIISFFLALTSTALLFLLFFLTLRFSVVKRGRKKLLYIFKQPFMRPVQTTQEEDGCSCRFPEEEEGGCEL

Row | Substance | half-life [1] [h] | clearance [1] [L/h/kg] | Vd [1] [L/kg] | complete responses [2] | pEC50 ([3]; Donor 1, 72 h incubation, read-out: Donor 1 EC50 of IFNγ secretion) | pEC50 ([3]; Donor 2, 72 h incubation, read-out: Donor 2 EC50 of IFNγ secretion) | Emax (fold induction over background) [4] | pEC50 [4] | pEC50 ([3]; Donor 1, 48 h incubation, read-out: Donor 1 EC50 of IFNγ secretion) | pEC50 ([3]; Donor 2, 48 h incubation, read-out: Donor 2 EC50 of IFNγ secretion) | CD8+ cell infiltration in tumor (IHC) [5] | T cell score in tumor tissue ([5]; vs vehicle) | cytotoxic cell score in tumor tissue ([5]; vs vehicle)
1 | I: A[hArg]DC[Hyp][Cba]VN[ξP]LCLHP[dD]W[hArg]C-NH2 / II: Ac-C[tBuAla]PE[dK]PYCFADPY[Nle]CA-NH2 / III: Ac-C[tBuAla]PE[dK]PYCFADPY[Nle]CA-NH2 (linker I:4-I:11-I:18, II:1-II:8-II:15, III:1-III:8-III:15 via TATA; linker I:N-II:5-III:5 via X1) [BCY13050] | 3.3 | 0.66 | 1.4 | 3 out of 6 | 9.42 | 9.72 | 42.46 | 10.05 | – | – | – | – | –
2 | I: Ac-C[tBuAla]PE[dK]PYCFADPY[Nle]CA-NH2 / II: Ac-C[tBuAla]PE[dK]PYCFADPY[Nle]CA-NH2 / III: C[Hyp]LVNPLCL[ξDip]P[dD]WTC-NH2 (linker I:1-I:8-I:15, II:1-II:8-II:15, III:1-III:8-III:15 via TATA; linker I:5-II:5-III:N via X3) [BCY13048] | 3.8 | 0.66 | 1.2 | 5 out of 6 | – | – | 48.35 | 10.05 | 9.52 | 9.62 | – | – | –
3 | anti-CD137 antibody: Anti-CD137 (urelumab analogue) | – | – | – | – | – | – | – | – | – | – | Some increase in CD8+ cell infiltration | increased significantly | increased significantly
